Assay results from ChEMBL document CHEMBL4385604, “Identification of Pyrrolo[2,3- d]pyrimidine-Based Derivatives as Potent and Orally Effective Fms-like Tyrosine Receptor Kinase 3 (FLT3) Inhibitors for Treating Acute Myelogenous Leukemia” (J Med Chem, 2019).

Legend:
[1] = Toxicity in NOD/SCID mouse xenografted with human MOLM13 cells at 1 to 10 mg/kg, po qd for 10 days; type: organism-based; conditions: in vivo, 240 h
[2] = Oral bioavailability in Sprague-Dawley rat at 5 mg/kg by LC-MS/MS analysis; type: ADME, organism-based; conditions: in vivo
BaF3 = assay: cells; conditions: Mus musculus, BaF3, 72 h
Description: Antiproliferative activity against mouse BAF3 cells harboring FLT3-ITD-D835V mutant measured after 72 hrs by MTT assay

MV4-11 [3] = assay: Induction of apoptosis in human MV4-11 cells assessed as viable cells at 100 nM after 48 hrs by Annexin V/propidium iodide staining based flow cytometry (reference value: 94.4%); type: functional; conditions: MV4-11, 48 h, read-out: Activity
MOLM-13 [4] = assay: Induction of apoptosis in human MOLM13 cells assessed as early apoptotic cells at 100 nM after 48 hrs by Annexin V/propidium iodide staining based flow cytometry (reference value: 5.97%); type: functional
MV4-11 [5] = assay: Antitumour activity against human MV4-11 cells xenografted in NOD/SCID mouse assessed as tumour growth inhibition at 1 mg/kg, po qd for 14 days measured every two days during compound dosing by caliper method relative to control; type: functional; conditions: MV4-11, po, read-out: TGI
MOLM-13 [6] = assay: Cell cycle arrest in human MOLM13 cells assessed as accumulation at G2/M phase at 10 nM after 24 hrs by propidium iodide staining-based flow cytometric analysis (reference value: 13.52%); type: functional
MOLM-13 [7] = assay: Cell cycle arrest in human MOLM13 cells assessed as accumulation at S phase at 3 nM after 24 hrs by propidium iodide staining-based flow cytometric analysis (reference value: 41.95%); type: functional
[8] = Plasma clearance in Sprague-Dawley rat at 5 mg/kg, po by LC-MS/MS analysis; type: ADME, organism-based
MOLM-13 [9] = assay: Induction of apoptosis in human MOLM13 cells assessed as necrotic cells at 10 uM after 48 hrs by Annexin V/propidium iodide staining based flow cytometry (reference value: 0.29%); type: functional
MV4-11 [10] = assay: Cell cycle arrest in human MV4-11 cells assessed as accumulation at S phase at 30 nM after 24 hrs by propidium iodide staining-based flow cytometric analysis (reference value: 30.12%); type: functional
MV4-11 [11] = assay: Antitumour activity against human MV4-11 cells xenografted in NOD/SCID mouse assessed as tumour growth inhibition at 3 mg/kg, po qd for 14 days measured every two days during compound dosing by caliper method relative to control; type: functional; conditions: MV4-11, po, read-out: TGI
MOLM-13 [12] = assay: Induction of apoptosis in human MOLM13 cells assessed as late apoptotic cells at 10 uM after 48 hrs by Annexin V/propidium iodide staining based flow cytometry (reference value: 5.52%); type: functional
RS4-11 = assay: Antiproliferative activity against human RS4:11 cells harboring wild-type FLT3 measured after 72 hrs by MTT assay; type: functional, cell-based; conditions: RS4-11, 72 h
MOLM-13 [13] = assay: Cell cycle arrest in human MOLM13 cells assessed as accumulation at S phase at 1 nM after 24 hrs by propidium iodide staining-based flow cytometric analysis (reference value: 41.95%); type: functional
MV4-11 [14] = assay: Induction of apoptosis in human MV4-11 cells assessed as viable cells at 1 uM after 48 hrs by Annexin V/propidium iodide staining based flow cytometry (reference value: 94.4%); type: functional; conditions: MV4-11, 48 h, read-out: Activity
MV4-11 [15] = assay: Induction of apoptosis in human MV4-11 cells assessed as necrotic cells at 10 nM after 48 hrs by Annexin V/propidium iodide staining based flow cytometry (reference value: 0.06%); type: functional
MOLM-13 [16] = assay: Induction of apoptosis in human MOLM13 cells assessed as late apoptotic cells at 1 uM after 48 hrs by Annexin V/propidium iodide staining based flow cytometry (reference value: 5.52%); type: functional
MOLM-13 [17] = assay: Induction of apoptosis in human MOLM13 cells assessed as viable cells at 1 uM after 48 hrs by Annexin V/propidium iodide staining based flow cytometry (reference value: 88.2%); type: functional; conditions: MOLM-13, 48 h, read-out: Activity
MV4-11 [18] = assay: Induction of apoptosis in human MV4-11 cells assessed as early apoptotic cells at 100 nM after 48 hrs by Annexin V/propidium iodide staining based flow cytometry (reference value: 2.76%); type: functional
MV4-11 [19] = assay: Induction of apoptosis in human MV4-11 cells assessed as late apoptotic cells at 10 nM after 48 hrs by Annexin V/propidium iodide staining based flow cytometry (reference value: 2.83%); type: functional
HL-60 = assay: Antiproliferative activity against human HL60 cells harboring wild-type FLT3 measured after 72 hrs by MTT assay; type: functional, cell-based; conditions: HL-60, 72 h
[20] = test system: Receptor-type tyrosine-protein kinase FLT3 (Homo sapiens), P36888 [UNDEFINED MUTATION]; assay: Inhibition of FLT3 ITD mutant in human MOLM13 cells assessed as ratio of phosphorylated STAT5 to beta-actin level at 30 nM after 2 hrs by Western blot analysis relative to control; type: cell-based
Homo sapiens [21] = species on record: Homo sapiens; assay: Selectivity ratio of IC50 for recombinant human c-Kit (544 to end residues) to IC50 for recombinant human FLT3 (564 to end residues)
Homo sapiens [22] = species on record: Homo sapiens; assay: Inhibition of MAPK in human MOLM13 cells assessed as ratio of phosphorylated ERK to beta-actin level at 100 nM after 2 hrs by Western blot analysis relative to control; type: cell-based
MV4-11 [23] = assay: Induction of apoptosis in human MV4-11 cells assessed as viable cells at 1 nM after 48 hrs by Annexin V/propidium iodide staining based flow cytometry (reference value: 94.4%); type: functional; conditions: MV4-11, 48 h, read-out: Activity
MV4-11 [24] = assay: Cell cycle arrest in human MV4-11 cells assessed as accumulation at G2/M phase at 3 nM after 24 hrs by propidium iodide staining-based flow cytometric analysis (reference value: 21.12%); type: functional
MOLM-13 [25] = assay: Cell cycle arrest in human MOLM13 cells assessed as accumulation at S phase at 10 nM after 24 hrs by propidium iodide staining-based flow cytometric analysis (reference value: 41.95%); type: functional
MV4-11 [26] = assay: Cell cycle arrest in human MV4-11 cells assessed as accumulation at G0/G1 phase at 1 nM after 24 hrs by propidium iodide staining-based flow cytometric analysis (reference value: 48.76%); type: functional
[27] = target: Receptor-type tyrosine-protein kinase FLT3 (Homo sapiens) (UniProt P36888); assay: Inhibition of FLT3 autophosphorylation in human MOLM13 cells assessed as ratio of phosphorylated FLT3 to beta-actin level at 100 nM after 2 hrs by Western blot analysis relative to control; type: cell-based
MV4-11 [28] = assay: Induction of apoptosis in human MV4-11 cells assessed as early apoptotic cells at 1 uM after 48 hrs by Annexin V/propidium iodide staining based flow cytometry (reference value: 2.76%); type: functional
MV4-11 [29] = assay: Cell cycle arrest in human MV4-11 cells assessed as accumulation at G2/M phase at 30 nM after 24 hrs by propidium iodide staining-based flow cytometric analysis (reference value: 21.12%); type: functional
MOLM-13 [30] = assay: Antitumour activity against human MOLM13 cells xenografted in po dosed NOD/SCID mouse assessed as tumour growth inhibition administered daily for 10 days; type: functional, organism-based
MOLM-13 [31] = assay: Cell cycle arrest in human MOLM13 cells assessed as accumulation at S phase at 30 nM after 24 hrs by propidium iodide staining-based flow cytometric analysis (reference value: 41.95%); type: functional
MOLM-13 [32] = assay: Induction of apoptosis in human MOLM13 cells assessed as late apoptotic cells at 100 nM after 48 hrs by Annexin V/propidium iodide staining based flow cytometry (reference value: 5.52%); type: functional

Chain of Receptor-type tyrosine-protein kinase FLT3 (Homo sapiens) (P36888 whole entry): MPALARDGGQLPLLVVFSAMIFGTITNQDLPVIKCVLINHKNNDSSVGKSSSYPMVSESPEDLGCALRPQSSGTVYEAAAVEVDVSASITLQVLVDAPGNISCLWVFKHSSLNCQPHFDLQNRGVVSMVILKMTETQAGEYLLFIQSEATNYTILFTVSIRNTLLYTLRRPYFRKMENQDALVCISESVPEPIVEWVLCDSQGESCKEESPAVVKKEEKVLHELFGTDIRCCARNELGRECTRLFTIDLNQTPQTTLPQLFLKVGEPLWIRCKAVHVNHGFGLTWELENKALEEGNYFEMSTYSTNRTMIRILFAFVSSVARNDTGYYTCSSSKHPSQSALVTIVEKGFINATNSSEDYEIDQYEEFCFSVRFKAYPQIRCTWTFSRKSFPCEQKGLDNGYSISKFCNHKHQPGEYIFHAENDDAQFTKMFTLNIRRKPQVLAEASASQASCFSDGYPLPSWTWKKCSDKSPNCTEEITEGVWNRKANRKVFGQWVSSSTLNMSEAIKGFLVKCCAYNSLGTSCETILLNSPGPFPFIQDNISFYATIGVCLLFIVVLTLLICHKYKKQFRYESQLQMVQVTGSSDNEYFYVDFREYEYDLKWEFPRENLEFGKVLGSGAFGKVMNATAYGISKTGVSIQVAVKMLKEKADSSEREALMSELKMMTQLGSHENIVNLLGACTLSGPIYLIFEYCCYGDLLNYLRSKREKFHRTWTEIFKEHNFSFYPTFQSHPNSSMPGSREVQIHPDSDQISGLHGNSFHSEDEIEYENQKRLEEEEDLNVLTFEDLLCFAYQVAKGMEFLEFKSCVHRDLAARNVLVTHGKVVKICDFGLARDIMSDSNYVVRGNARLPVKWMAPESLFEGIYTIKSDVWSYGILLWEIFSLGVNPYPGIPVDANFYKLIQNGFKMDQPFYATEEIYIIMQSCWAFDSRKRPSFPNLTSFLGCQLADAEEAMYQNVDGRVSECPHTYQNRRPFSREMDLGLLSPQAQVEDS
Chain of Receptor-type tyrosine-protein kinase FLT3 (Homo sapiens), P36888 [UNDEFINED MUTATION] (P36888 whole entry, looked up, change not shown): as the sequence (P36888 whole entry) above

For `C=CCn1cc(-c2ccc(NC(=O)Nc3cc(C(C)(C)C)on3)cc2)c2c(N)ncnc21`, the Activity [1] was “Non-Toxic”, the bioavailability [2] was 59.5% and the IC50 (BaF3) was 20.7 nM. The viability at 0.1 µM (MV4-11 [3]) was 75.7%, the Activity (MOLM-13 [4]) was 15.5% and the inhibition in vivo at 1 mg/kg (MV4-11 [5]) was 70.5%. For the same molecule, the Activity (MOLM-13 [6]) was 2.37%, the Activity (MOLM-13 [7]) was 11.83% and the CL/F [8] was 20.3 mL/min/kg. The Activity (MOLM-13 [9]) was 0.4%, the Activity (MV4-11 [10]) was 1.96% and the inhibition in vivo at 3 mg/kg (MV4-11 [11]) was 98.2%. For the same molecule, the Activity (MOLM-13 [12]) was 98.5%, the IC50 (RS4-11) was > 1000 nM and the Activity (MOLM-13 [13]) was 35.23%. It also gave a viability at 1 µM (MV4-11 [14]) of 55%, an Activity (MV4-11 [15]) of 0.2% and an Activity (MOLM-13 [16]) of 46.8%. It also gave a viability at 1 µM (MOLM-13 [17]) of 29%, an Activity (MV4-11 [18]) of 11.3% and an Activity (MV4-11 [19]) of 11%. The IC50 (HL-60) was > 1000 nM, the fold change (FC) [20] was 0 and the Ratio IC50 (Homo sapiens [21]) was > 40. For the same molecule, the fold change (FC) (Homo sapiens [22]) was 0.12, the viability at 0.001 µM (MV4-11 [23]) was 92.7% and the Activity (MV4-11 [24]) was 4.08%. For the same molecule, the Activity (MOLM-13 [25]) was 3.01%, the Activity (MV4-11 [26]) was 50.94% and the fold change (FC) [27] was 0. For the same molecule, the Activity (MV4-11 [28]) was 19.9%, the Activity (MV4-11 [29]) was 1.79% and the TGI (MOLM-13 [30]) was “Dose-dependent effect”. The Activity (MOLM-13 [31]) was 2.84% and the Activity (MOLM-13 [32]) was 21.5%.
